Source: patent publication US12453759B2, “Di-thioester cationic lipids” (TRANSLATE BIO, INC., priority 2019, dated 2025)

Test system: hEPO protein expression
Test: In vivo expression of hEPO after IM injection of hEPO mRNA lipid nanoparticles (serum ELISA)
Conditions: LNP with hEPO mRNA, cationic lipid, DMG-PEG2000, cholesterol, DOPE, single IM injection into gastrocnemius, 0.1 ug, male BALB/c mice, FIG. 1
Protocol: Lipid nanoparticle formulations comprising human erythropoietin (hEPO) mRNA, a cationic Lipid, DMG-PEG2000, cholesterol and DOPE were administered intramuscularly to study mRNA delivery and resultant hEPO expression. Male BALB/c mice at 6-8 weeks old are given a single injection of the LNP formulations into the gastrocnemius muscle at a dosage level of 0.1 ug. Blood samples were collected at 6 and 24 hours post-dose. hEPO protein expression levels were measured in the sera samples by ELISA and presented in FIG. 1.

SMILES	in vivo protein production (hEPO protein expression levels in sera) (6 hours after administration)	in vivo protein production (hEPO protein expression levels in sera) (24 hours after administration)
CCCCCCCCCCC(O)CN(CCSC(=O)c1ccc(C(=O)SCCN(CC(O)CCCCCCCCCC)CC(O)CCCCCCCCCC)cc1)CC(O)CCCCCCCCCC (stereo not drawn) [Compound 98]	high levels of in vivo protein production	high levels of in vivo protein production
CCCCCCCCC(O)CN(CCSC(=O)[C@H]1CC[C@H](C(=O)SCCN(CC(O)CCCCCCCC)CC(O)CCCCCCCC)CC1)CC(O)CCCCCCCC (stereo partly drawn) [Compound 79]	high levels of in vivo protein production	–
